# According to PubChem BioAssay (NCI):
#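 Results reflect a 48-hour exposure of cells in 96-well plates to compound at five concentrations. GI50 is the concentration that inhibits growth by half. TGI: total growth inhibition.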
# What was measured:
# Experiment in all cases: DTP human tumour cell line panel, 48 h
# BT-549 breast = system: BT-549 breast
# CCRF-CEM leukemia = system: CCRF-CEM leukemia
# COLO 205 colon = system: COLO 205 colon
# DU-145 prostate = system: DU-145 prostate
# HCC-2998 colon = system: HCC-2998 colon
# HCT-116 colon = system: HCT-116 colon
# HL-60(TB) leukemia = system: HL-60(TB) leukemia
# NCI/ADR-RES ovarian = system: NCI/ADR-RES ovarian
# UACC-62 melanoma = system: UACC-62 melanoma
# T-47D breast = system: T-47D breast
Compound,TGI (BT-549 breast),TGI (CCRF-CEM leukemia),TGI (COLO 205 colon),TGI (DU-145 prostate),TGI (HCC-2998 colon),TGI (HCT-116 colon),TGI (HL-60(TB) leukemia),TGI (NCI/ADR-RES ovarian),TGI (UACC-62 melanoma),TGI (T-47D breast),GI50 (BT-549 breast),GI50 (CCRF-CEM leukemia),GI50 (HCC-2998 colon),GI50 (HCT-116 colon),GI50 (HL-60(TB) leukemia),GI50 (NCI/ADR-RES ovarian),GI50 (T-47D breast),GI50 (COLO 205 colon),GI50 (DU-145 prostate),GI50 (UACC-62 melanoma)
CC(C)(C)C1CCC2c3c([nH]c4ccccc34)C3C(=O)N(c4cc(Br)cc(Br)c4)C(=O)C3C2C1 (centres undefined),> 100 µM,25.1 µM,> 100 µM,> 100 µM,24.7 µM,23.1 µM,5.82 µM,40.8 µM,> 100 µM,,,,,,,,,,,
CCOC(=O)c1nc2c3c(ncn2n1)Oc1c(c(-c2ccccc2)nn1-c1ccccc1)C3c1ccc(OC)c(OC)c1 (centres undefined),> 100 µM,> 100 µM,> 100 µM,> 100 µM,> 100 µM,> 100 µM,,> 100 µM,> 100 µM,,,,,,,,,,,
Nc1c(Br)cc(-c2cc(Br)c(N)c(Br)c2)cc1Br,,> 100 µM,> 100 µM,> 100 µM,> 100 µM,> 100 µM,> 100 µM,> 100 µM,> 100 µM,> 100 µM,,,,,,,,,,
COc1ccc(CN2C(=O)CCC/C=C\[C@H]2CI)cc1,33.7 µM,,26.9 µM,26 µM,23.8 µM,24 µM,,28.2 µM,22.6 µM,6.69 µM,,,,,,,,,,
COc1c2nc(CCl)n(C)c(=O)c2c(OC)c2c(=O)n(C)c(CCl)nc12,1.96 µM,2.09 µM,2.71 µM,14 µM,2.65 µM,,2.47 µM,6.88 µM,,,,,,,,,,,,
CCOn1cc(C[C@@]2(O)C(=O)OC3[C@@H](O)CO[C@@]32O)c2ccccc21 (some centres undefined),> 100 µM,> 100 µM,> 100 µM,> 100 µM,,> 100 µM,> 100 µM,> 100 µM,> 100 µM,> 100 µM,,,,,,,,,,
Oc1c(OCc2nnc(CCCCCCCCc3nnc(COc4ccc5ccccc5c4O)n3Nc3ccccc3)n2Nc2ccccc2)ccc2ccccc12,25.7 µM,,1.32 µM,31.9 µM,21.8 µM,24.8 µM,,42.6 µM,16.5 µM,> 100 µM,,,,,,,,,,
Nc1cc2c(cc1[N+](=O)[O-])[nH]c1c(-c3ccccc3)nccc12,,74.7 µM,44.3 µM,,31.5 µM,36 µM,42.1 µM,41.4 µM,27.8 µM,,,,,,,,,,,
O=c1c2cc([N+](=O)[O-])ccc2n2n1Cc1ccccc1CC2,> 100 µM,> 100 µM,> 100 µM,> 100 µM,> 100 µM,> 100 µM,> 100 µM,> 100 µM,> 100 µM,,,,,,,,,,,
CSc1nc2c(c(N(C)C)n1)C=Nn1c(nc3ccccc31)S2,> 100 µM,,> 100 µM,> 100 µM,> 100 µM,> 100 µM,,> 100 µM,> 100 µM,> 100 µM,,,,,,,,,,
On1c(-c2ccccc2)c(-c2c(-c3ccccc3)n(O)c3ccccc23)c2ccccc21,,> 100 µM,,,,> 100 µM,> 100 µM,,> 100 µM,,,,,,,,,,,
ClCCN(CCCl)Cc1ccc(Nc2ccnc3cc(Cl)ccc23)cc1,6.04 µM,2.99 µM,,,2.76 µM,> 100 µM,3.07 µM,7.36 µM,,3.69 µM,2.12 µM,0.265 µM,1.41 µM,1.56 µM,0.403 µM,2.17 µM,1.09 µM,,,
O=c1[nH]cnc2c1nnn2CCCn1nnc2c(=O)[nH]cnc21,,> 100 µM,> 100 µM,,> 100 µM,> 100 µM,> 100 µM,,> 100 µM,,,,,,,,,,,
CN1CC(c2ccccc2)=Cc2c1ccc(N)c2N=N,> 100 µM,> 100 µM,,,> 100 µM,> 100 µM,,> 100 µM,> 100 µM,> 100 µM,,,,,,,,,,
Cc1c(C)c(C)c(-n2c(=O)n(C)c(=O)n2C(C)(C)C)c(C)c1C,> 100 µM,> 100 µM,> 100 µM,> 100 µM,> 100 µM,> 100 µM,> 100 µM,,> 100 µM,> 100 µM,,,,,,,,,,
c1cnc2c(c1)-n1cccc1C1(CCOCC1)NN2,,> 100 µM,> 100 µM,,> 100 µM,> 100 µM,> 100 µM,,,,,,,,,,,,,
Cc1ncc([N+](=O)[O-])n1CCN(C)CCCCn1ccnc1[N+](=O)[O-],> 100 µM,> 100 µM,> 100 µM,> 100 µM,> 100 µM,> 100 µM,> 100 µM,,> 100 µM,> 100 µM,,,,,,,,,,
[N-]=N[N+]#I1OC(C(F)(F)F)(C(F)(F)F)c2ccccc21,,47.2 µM,27 µM,38 µM,31.8 µM,38.2 µM,30.6 µM,45.4 µM,47.8 µM,27.7 µM,,,,,,,,,,
CO/C(=N\N=C(/C)C(F)(F)F)c1ccncc1,> 100 µM,> 100 µM,> 100 µM,> 100 µM,,> 100 µM,> 100 µM,> 100 µM,> 100 µM,> 100 µM,,,,,,,,,,
O=C(NCCNCCO)N/N=C/c1cccc([N+](=O)[O-])c1,,> 100 µM,> 100 µM,,,> 100 µM,> 100 µM,,> 100 µM,,,,,,,,,,,
COC[C@H]1C(=O)NCC(=O)N2NCCC[C@H]2C(=O)N(O)[C@H](C)C(=O)O[C@@H](C(C)C)[C@H](NC(=O)[C@](C)(O)[C@]2(O)CC[C@@H](CC(C)C)[C@H](C)O2)C(=O)N2NCCC[C@@H]2C(=O)N1O,,,0.0284 µM,0.0232 µM,,,0.0399 µM,,0.0312 µM,0.0332 µM,,,,,0.0151 µM,,0.0149 µM,0.0139 µM,< 0.0114 µM,0.0154 µM
C1=C2SSC3=CC=C(SSc4ccc(s4)SSC4=CC=C(SSC(=C1)S2)S4)S3,> 100 µM,> 100 µM,> 100 µM,> 100 µM,> 100 µM,> 100 µM,,> 100 µM,,> 100 µM,,,,,,,,,,
CC1=C/C(=C(\c2ccc(N(C)C)cc2)c2ccc([N+](C)(C)C)cc2)C=CC1=[N+](C)C,,,85.4 µM,,48.7 µM,14.3 µM,5.93 µM,,19.3 µM,,,,,,,,,,,
C=C/C(C)=C/[C@H](C)C(=O)C[C@H](O)CC1CC(=O)NC(=O)C1,,> 100 µM,> 100 µM,,> 100 µM,> 100 µM,> 100 µM,> 100 µM,> 100 µM,,,,,,,,,,,
